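48-hour exposure; five concentrations; linearly interpolated endpoints. The concentration for 50% growth inhibition is given as GI50. TGI is the concentration that stops growth completely.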

This passage reports GI50 and TGI results from PubChem BioAssay (NCI).

Test systems include M19-MEL melanoma; RXF-631 renal; XF 498 CNS; BT-549 breast; NCI/ADR-RES ovarian.
Common to all, as to assay: growth of human tumour cells (NCI), 48 h

`CCC[CH2][Sn]([CH2]CCC)([O]C(=O)C(N)CSC)[O]C(=O)C(N)CSC` (stereo not drawn): the GI50 in the experiment on M19-MEL melanoma is 6.65 µM; in the experiment with RXF-631 renal, 3.16 µM; with XF 498 CNS, 5.54 µM. In addition, the TGI in the experiment with M19-MEL melanoma worked out at 19.5 µM; in the experiment on RXF-631 renal it was 17.3 µM; in the experiment with XF 498 CNS, 19 µM.

For `COC(=O)C12C3C4C5C3(C#N)C1C5(C(=O)OC)C42C(=O)N(C(C)C)C(C)C` (stereo not drawn), the TGI in the experiment with M19-MEL melanoma, in the experiment on RXF-631 renal and in the experiment with XF 498 CNS was more than 100 µM throughout.

For the molecule `CCCCc1ccc(-n2c3nc(=O)n(C)c(=O)c-3nc3ccccc32)cc1`, the TGI worked out at 2.87 µM in the experiment on M19-MEL melanoma, 35.3 µM with RXF-631 renal and 32.4 µM in the experiment with XF 498 CNS.

On to `Nc1nc(=S)[nH]c(C(=O)Nc2ccc(Cl)c(Cl)c2)c1-c1ccc(Cl)cc1`, for which the TGI with M19-MEL melanoma, with RXF-631 renal and with XF 498 CNS was more than 100 µM in each case.

Regarding `O=c1[nH]c2c3ccccc3ccc2c2cc3c(cc12)OCO3`, the TGI in the experiment on M19-MEL melanoma, with RXF-631 renal and with XF 498 CNS was more than 100 µM in each case.

Consider `CCCCCCCCCCC(O)C1CCC(C(O)CCC(O)C2CCC(CCCCCCC[C@H](O)CC3=C[C@@H](C)OC3=O)O2)O1` (stereo partly drawn), for which the TGI in the experiment on BT-549 breast was 2260 nM; with M19-MEL melanoma, more than 100 µM; in the experiment with NCI/ADR-RES ovarian it was 8.23 µM; with RXF-631 renal, more than 100 µM; in the experiment with XF 498 CNS it was more than 100 µM.
